Data on two molecules can be found in ChEMBL document CHEMBL3616429, “Chemical structure and biological activity of a quorum sensing pheromone from Bacillus subtilis subsp. natto” (2015).

Active and inactive are the calls of the source. The calls are words filed in the database; no cut-off is given here. *1 amine or outer side, *2 acyl side, *3 side chain or, on linkers, in order; H or OH if unused. Where a SMILES comes first, the peptide text is derived from it. [ ]: non-standard residue; d: D form. X1 = CC(C)=CCC/C(C)=C/CC/C(C)=C/C[C@]12C[C@@H](C(=O)[*:2])N([*:1])[C@@H]1Nc1ccccc12

Assay type in all cases: functional
Test [1] has as its system Bacillus subtilis. The experiment in a line: Induction of poly-gamma-glutamic acid production in Bacillus subtilis subsp. natto at 1000 nM incubated for 72 hrs at 37 degC by ultra-filtration method.
Test [2] deals with Bacillus subtilis. The experiment in a line: Induction of poly-gamma-glutamic acid production in Bacillus subtilis subsp. natto at 100 nM incubated for 72 hrs at 37 degC by ultra-filtration method.
In test [3] the test system is Bacillus subtilis. The experiment in a line: Induction of poly-gamma-glutamic acid production in Bacillus subtilis subsp. natto at 10 nM incubated for 72 hrs at 37 degC by ultra-filtration method.
Test [4] relates to Bacillus subtilis. Description: Induction of poly-gamma-glutamic acid production in Bacillus subtilis subsp. natto at >1 nM incubated for 72 hrs at 37 degC by ultra-filtration method.

Turning to H-KWPPIE-OH, the outcome in the test with Bacillus subtilis [1] was inactive.
`CC[C@H](C)[C@H](NC(=O)[C@@H]1CCCN1C(=O)[C@@H]1CCCN1C(=O)[C@@H]1C[C@]2(C/C=C(\C)CC/C=C(\C)CCC=C(C)C)c3ccccc3N[C@H]2N1C(=O)[C@@H](N)CCCCN)C(=O)N[C@@H](CCC(=O)O)C(=O)O` (H-K[X1]PPIE-OH): the “fold change (FC)” value in the test with Bacillus subtilis [2] was determined as 2. Also, the outcome in the test on Bacillus subtilis [3] and with Bacillus subtilis [4] was Active.
